ChEMBL document CHEMBL1157642, “2-Amino-5-benzoyl-4-phenylthiazoles: Development of potent and selective adenosine A1 receptor antagonists” (Bioorg Med Chem, 2010)
Numbering of substitutions follows the chain as printed.

Tests used:
Adenosine receptor A1 [1] = target: T1, Adenosine receptor A1 (Rattus norvegicus, UniProt P25099); assay: Displacement of [3H]DPCPX from adenosine A1 receptor in rat brain cortical membrane in absence of 100 uM GTP; assay type: cell membranes
T1 sequence (P25099 whole entry): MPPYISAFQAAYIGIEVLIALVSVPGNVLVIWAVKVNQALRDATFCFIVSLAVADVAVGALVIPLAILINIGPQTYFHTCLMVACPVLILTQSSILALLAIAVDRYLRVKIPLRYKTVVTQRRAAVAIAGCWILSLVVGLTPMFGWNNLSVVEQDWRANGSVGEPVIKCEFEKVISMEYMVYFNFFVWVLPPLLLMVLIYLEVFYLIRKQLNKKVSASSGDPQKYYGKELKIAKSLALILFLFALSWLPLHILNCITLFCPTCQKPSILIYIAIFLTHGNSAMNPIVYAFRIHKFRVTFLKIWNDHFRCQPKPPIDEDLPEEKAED

Adenosine receptor A3 [2] = target: T2, Adenosine receptor A3 (Homo sapiens, UniProt P0DMS8); assay: biochemical
T2 sequence (P0DMS8 whole entry): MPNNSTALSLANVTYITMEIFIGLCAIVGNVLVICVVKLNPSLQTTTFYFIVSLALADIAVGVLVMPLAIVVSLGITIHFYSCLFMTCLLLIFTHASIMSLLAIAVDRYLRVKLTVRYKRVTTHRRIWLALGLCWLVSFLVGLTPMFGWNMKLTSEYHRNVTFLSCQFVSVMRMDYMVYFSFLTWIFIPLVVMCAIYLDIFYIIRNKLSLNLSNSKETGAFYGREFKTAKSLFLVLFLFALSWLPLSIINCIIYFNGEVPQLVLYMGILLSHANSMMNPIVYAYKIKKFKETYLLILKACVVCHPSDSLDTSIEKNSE

Adenosine receptor A1 [3] = target: T1, Adenosine receptor A1; assay: Displacement of [3H]DPCPX from adenosine A1 receptor in rat brain cortical membrane in presence of 100 uM GTP; assay type: cell membranes
Adenosine receptor A1 [4] = target: T3, Adenosine receptor A1 (Homo sapiens, UniProt P30542); assay: Displacement of [3H]CCPA from human adenosine A1 receptor expressed in CHO cells; assay type: cell-based
T3 sequence (P30542 whole entry): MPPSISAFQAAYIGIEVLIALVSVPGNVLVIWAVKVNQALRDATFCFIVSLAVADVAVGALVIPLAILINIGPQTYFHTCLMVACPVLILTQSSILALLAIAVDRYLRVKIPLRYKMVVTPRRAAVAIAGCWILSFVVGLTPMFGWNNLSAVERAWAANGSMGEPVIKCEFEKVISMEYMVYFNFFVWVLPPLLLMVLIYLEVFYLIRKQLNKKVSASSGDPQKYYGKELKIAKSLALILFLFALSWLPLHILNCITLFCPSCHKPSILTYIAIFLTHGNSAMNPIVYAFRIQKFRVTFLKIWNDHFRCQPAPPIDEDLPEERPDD

[5] = target: T4, Adenosine receptor A1 (Rattus norvegicus) (UniProt P25099); assay: Potency shift, ratio of IC50 for rat brain cortical membrane adenosine A1 receptor in presence of 100 uM GTP to C50 for rat brain cortical membrane adenosine A1 receptor in absence of 100 uM GTP
T4 sequence (whole entry): T1 sequence (P25099 whole entry)

Adenosine receptor A2a [6] = target: Adenosine receptor A2a (Homo sapiens, UniProt P29274); assay: Displacement of [3H]MSX2 from human adenosine A2A receptor expressed in CHO cells; assay type: cell-based
[7] = target: T5, Adenosine receptor A2b (Homo sapiens) (UniProt P29275); assay: Displacement of [3H]PSB-603 from human adenosine A2B receptor expressed in CHO cells at 1 uM; assay type: cell-based
T5 sequence (whole entry): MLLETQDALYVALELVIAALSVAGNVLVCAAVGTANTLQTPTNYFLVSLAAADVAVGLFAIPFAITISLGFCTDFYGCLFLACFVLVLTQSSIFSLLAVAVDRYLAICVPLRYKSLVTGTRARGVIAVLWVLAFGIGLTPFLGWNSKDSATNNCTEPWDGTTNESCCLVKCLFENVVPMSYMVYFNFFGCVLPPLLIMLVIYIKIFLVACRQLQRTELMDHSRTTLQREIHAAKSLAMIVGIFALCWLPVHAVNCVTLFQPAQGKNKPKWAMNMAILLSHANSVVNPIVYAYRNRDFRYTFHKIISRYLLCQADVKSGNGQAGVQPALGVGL

Adenosine receptor A2a [8] = target: T6, Adenosine receptor A2a (Rattus norvegicus, UniProt P30543)
Adenosine receptor A2b = target: T7, Adenosine receptor A2b (Homo sapiens, UniProt P29275); assay: Displacement of [3H]PSB-603 from human adenosine A2B receptor expressed in CHO cells; assay type: cell-based
T7 sequence (P29275 whole entry): T5 sequence (whole entry)

Adenosine receptor A1 [9] = target: T1, Adenosine receptor A1
[10] = target: Adenosine receptor A2a (Rattus norvegicus) (UniProt P30543); assay: Displacement of [3H]MSX2 from adenosine A2A receptor in rat brain striatum membrane at 1 uM; assay type: cell membranes
Adenosine receptor A2a [11] = target: T6, Adenosine receptor A2a; remark: listed apart in the source
Adenosine receptor A1 [12] = target: T3, Adenosine receptor A1; assay: Binding affinity to human adenosine A1 receptor
Adenosine receptor A1 [13] = target: T1, Adenosine receptor A1; assay: Binding affinity to rat adenosine A1 receptor
Adenosine receptor A3 [14] = target: T2, Adenosine receptor A3; assay: Binding affinity to human adenosine A3 receptor
Adenosine receptor A1 [15] = target: T8, Adenosine receptor A1 (Mus musculus, UniProt Q60612); assay: Binding affinity to mouse adenosine A1 receptor
T8 sequence (Q60612 whole entry): T1 sequence (P25099 whole entry) with V151E, D155A, R157I, D316E, L319I, E325D

Adenosine receptor A1 [16] = target: T9, Adenosine receptor A1 (Cavia porcellus, UniProt P47745); assay: Binding affinity to guinea pig adenosine A1 receptor
T9 sequence (P47745 whole entry): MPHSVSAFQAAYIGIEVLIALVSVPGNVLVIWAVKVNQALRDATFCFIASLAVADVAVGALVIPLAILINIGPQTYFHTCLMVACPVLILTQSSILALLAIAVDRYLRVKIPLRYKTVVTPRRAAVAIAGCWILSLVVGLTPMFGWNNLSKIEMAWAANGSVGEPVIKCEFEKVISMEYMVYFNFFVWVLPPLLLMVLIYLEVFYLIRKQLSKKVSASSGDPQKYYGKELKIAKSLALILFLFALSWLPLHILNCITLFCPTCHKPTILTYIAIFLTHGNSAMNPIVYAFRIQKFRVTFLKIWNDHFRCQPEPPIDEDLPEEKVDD

[17] = target: T10, Adenosine receptor A3 (Homo sapiens) (UniProt P0DMS8); assay: Displacement of [3H]PSB-11 from human adenosine A3 receptor expressed in CHO cells at 1 uM; assay type: cell-based
T10 sequence (whole entry): T2 sequence (P0DMS8 whole entry)

[18] = target: T4, Adenosine receptor A1 (Rattus norvegicus); assay: Displacement of [3H]CCPA from adenosine A1 receptor in rat brain cortex membrane at 1 uM; assay type: cell membranes
Adenosine receptor A2a [19] = target: Adenosine receptor A2a (Cavia porcellus, UniProt P46616); assay: Binding affinity to guinea pig adenosine A2A receptor
Sequence of Adenosine receptor A2a (Cavia porcellus, UniProt P46616) (P46616 whole entry): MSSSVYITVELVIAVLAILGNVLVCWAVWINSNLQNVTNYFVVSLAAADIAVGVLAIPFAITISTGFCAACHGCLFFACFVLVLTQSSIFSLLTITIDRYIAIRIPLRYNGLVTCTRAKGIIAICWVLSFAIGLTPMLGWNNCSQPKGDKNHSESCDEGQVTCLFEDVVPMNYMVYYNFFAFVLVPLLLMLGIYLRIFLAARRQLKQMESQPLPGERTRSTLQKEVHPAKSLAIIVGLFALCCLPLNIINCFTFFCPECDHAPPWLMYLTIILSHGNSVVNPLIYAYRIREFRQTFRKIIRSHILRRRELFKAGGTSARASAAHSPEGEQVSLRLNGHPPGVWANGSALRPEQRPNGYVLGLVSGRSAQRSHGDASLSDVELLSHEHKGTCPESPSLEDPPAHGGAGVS

T6 sequence (P30543 whole entry): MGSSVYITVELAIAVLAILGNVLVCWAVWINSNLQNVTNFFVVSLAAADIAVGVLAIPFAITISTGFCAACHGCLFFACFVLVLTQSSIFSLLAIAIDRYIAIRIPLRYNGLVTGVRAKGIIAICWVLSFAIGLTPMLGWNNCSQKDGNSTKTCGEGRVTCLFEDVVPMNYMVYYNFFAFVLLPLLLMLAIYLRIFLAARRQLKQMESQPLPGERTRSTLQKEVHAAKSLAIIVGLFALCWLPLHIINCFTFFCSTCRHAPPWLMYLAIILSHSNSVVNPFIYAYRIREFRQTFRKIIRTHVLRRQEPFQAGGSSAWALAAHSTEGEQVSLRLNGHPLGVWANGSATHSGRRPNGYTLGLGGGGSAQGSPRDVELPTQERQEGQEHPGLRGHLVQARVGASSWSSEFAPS
Sequence of Adenosine receptor A2a (Rattus norvegicus) (P30543 whole entry): as above
Sequence of Adenosine receptor A2a (Homo sapiens, UniProt P29274) (P29274 whole entry): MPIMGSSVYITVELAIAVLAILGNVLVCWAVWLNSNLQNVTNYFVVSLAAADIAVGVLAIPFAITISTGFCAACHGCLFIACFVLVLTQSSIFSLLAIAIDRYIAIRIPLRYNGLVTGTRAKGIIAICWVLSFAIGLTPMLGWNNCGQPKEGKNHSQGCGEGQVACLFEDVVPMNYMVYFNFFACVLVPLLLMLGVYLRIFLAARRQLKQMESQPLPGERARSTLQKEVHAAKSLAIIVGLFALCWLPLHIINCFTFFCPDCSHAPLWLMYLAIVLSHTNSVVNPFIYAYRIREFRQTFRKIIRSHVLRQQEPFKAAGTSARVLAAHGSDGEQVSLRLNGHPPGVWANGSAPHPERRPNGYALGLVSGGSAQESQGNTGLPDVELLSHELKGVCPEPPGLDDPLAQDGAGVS

Ki (Adenosine receptor A3 [2]) [nM] | inhibition [7] [%] | Ki (Adenosine receptor A2a [8]) [nM] | Ki (Adenosine receptor A2b) [nM] | Ki (Adenosine receptor A1 [9]) [nM] | inhibition [10] [%] | inhibition [17] [%] | inhibition [18] [%] | other results | SMILES
208 | < 30 | 662 | > 1000 | 5.77 |  |  |  | IC50 (Adenosine receptor A1 [1]): 25.4 nM; IC50 (Adenosine receptor A1 [3]): 28.8 nM; Ki (Adenosine receptor A1 [4]): 54.3 nM; Ratio IC50 [5]: 1.2; Ki (Adenosine receptor A2a [6]): 348 nM | O=C(Nc1nc(-c2ccccc2)c(C(=O)c2ccccc2)s1)c1ccco1
98.8 | < 30 | 1840 | > 1000 | 69.9 |  |  |  |  | CCOC(=O)Nc1nc(-c2ccccc2)c(C(=O)c2ccc(OC)cc2)s1
2160 | < 30 | > 1000 | > 1000 | 4.83 | < 30 |  |  | IC50 (Adenosine receptor A1 [1]): 22.1 nM; IC50 (Adenosine receptor A1 [3]): 22.3 nM; Ki (Adenosine receptor A1 [4]): 57.4 nM; Ratio IC50 [5]: 0.99; Ki (Adenosine receptor A2a [6]): 6250 nM | Cc1ccc(C(=O)c2sc(NC(=O)c3ccccc3)nc2-c2ccccc2)cc1
 |  |  |  |  |  |  |  | Ki (Adenosine receptor A2a [11]): 501 nM; Ki (Adenosine receptor A1 [12]): 1 nM; Ki (Adenosine receptor A1 [13]): 2.51 nM; Ki (Adenosine receptor A3 [14]): 200 nM | OC1CCC(Nc2nc(-c3ccccc3)nc3[nH]ccc23)CC1 (centres undefined) [DERENOFYLLINE]
 |  |  |  |  |  |  |  | Ki (Adenosine receptor A2a [11]): 1200 nM; Ki (Adenosine receptor A1 [12]): 12 nM; Ki (Adenosine receptor A1 [15]): 10.2 nM; Ki (Adenosine receptor A1 [16]): 10 nM | O=C(O)CCCn1nc(-c2c(-c3ccccc3)nn3ccccc23)ccc1=O
> 1000 | < 30 | > 1000 | > 1000 | > 1000 | < 30 | < 30 | < 30 |  | CS(=O)(=O)c1ccc(C(=O)c2sc(Nc3ccccc3)nc2-c2ccccc2)cc1
619 | < 30 | > 1000 | > 1000 | 12 | < 30 |  |  |  | O=C(Nc1nc(-c2ccccc2)c(C(=O)c2ccc(Cl)cc2)s1)c1ccco1
3250 |  | 2470 |  |  |  |  |  |  | OC[C@H]1O[C@@H](n2cnc3c(NC4CCCC4)ncnc32)[C@H](O)[C@@H]1O [N6-CYCLOPENTYLADENOSINE]
> 1000 | < 30 | > 1000 | > 1000 | > 1000 | < 30 | < 30 | < 30 |  | CNc1nc(-c2ccccc2)c(C(=O)c2ccccc2)s1
> 1000 |  | > 1000 | 337 | > 1000 | < 30 | < 30 | < 30 |  | O=C(c1ccccc1)c1sc(Nc2ccccc2)nc1-c1ccccc1
> 1000 | 40 | > 1000 | > 1000 | > 1000 | < 30 | < 30 | < 30 |  | Cc1ccc(C(=O)Nc2nc(-c3ccccc3)c(C(=O)c3ccccc3)s2)cc1
> 1000 | < 30 | > 1000 | > 1000 | > 1000 | < 30 | < 30 | < 30 |  | Cc1ccc(C(=O)c2sc(Nc3ccccc3)nc2-c2ccccc2)cc1
 |  |  |  |  |  |  |  | Ki (Adenosine receptor A1 [15]): 0.55 nM; IC50 (Adenosine receptor A2a [19]): 1180 nM; IC50 (Adenosine receptor A1 [16]): 0.56 nM | O=C(/C=C/c1c(-c2ccccc2)nn2ccccc12)N1CCCC[C@@H]1CCO [FK453]
206 |  | 1640 | 391 | 72.9 |  |  |  |  | CCOC(=O)Nc1nc(-c2ccccc2)c(C(=O)c2ccccc2)s1
487 | < 30 | > 1000 | > 1000 | 1000 | < 30 |  | 41 |  | CCOC(=O)Nc1nc(-c2ccccc2)c(C(=O)c2ccc(Cl)cc2)s1
354 | < 30 | 3030 | > 1000 | 9.51 |  |  |  |  | O=C(Nc1nc(-c2ccccc2)c(C(=O)c2ccccc2)s1)c1ccccc1
> 1000 | < 30 | > 1000 | > 1000 | > 1000 | < 30 | < 30 | < 30 |  | CNc1nc(-c2ccccc2)c(C(=O)c2ccc(Cl)cc2)s1
 |  |  |  |  |  |  |  | Ki (Adenosine receptor A2a [11]): 170 nM; Ki (Adenosine receptor A2a [19]): 230 nM | CCCn1c(=O)c2[nH]c(C34CC5CC(CC3C5)C4)nc2n(CCC)c1=O [ROLOFYLLINE]
 |  |  |  |  |  |  |  | Ki (Adenosine receptor A1 [12]): > 6700 nM | O=C(c1ccccc1)c1sc(NCCc2cccs2)nc1-c1ccco1
 | 39 |  |  |  | < 30 | < 30 | < 30 |  | COc1ccc(C(=O)c2sc(Nc3ccccc3)nc2-c2ccccc2)cc1
1000 | < 30 | > 1000 | > 1000 | 7.15 | < 30 | 56 |  |  | COc1ccc(C(=O)c2sc(NC(=O)c3ccccc3)nc2-c2ccccc2)cc1
> 1000 | < 30 | > 1000 | > 1000 | > 1000 | < 30 | < 30 | < 30 |  | Cc1ccc(C(=O)Nc2nc(-c3ccccc3)c(C(=O)c3ccc(Cl)cc3)s2)cc1
> 1000 | < 30 | > 1000 | > 1000 | > 1000 | < 30 | < 30 | < 30 |  | CNc1nc(-c2ccccc2)c(C(=O)c2ccc(OC)cc2)s1
 |  |  |  |  |  |  |  | Ki (Adenosine receptor A2a [11]): 2440 nM; Ki (Adenosine receptor A1 [13]): 1.3 nM; Ki (Adenosine receptor A3 [14]): 10000 nM | CCCn1c(=O)c2[nH]c(C34CCC(CCC(=O)O)(CC3)CC4)nc2n(CCC)c1=O [TONAPOFYLLINE]
> 1000 | < 30 | > 1000 | > 1000 | > 1000 | < 30 | < 30 | < 30 |  | CS(=O)(=O)c1ccc(C(=O)c2sc(NC(=O)c3ccccc3)nc2-c2ccccc2)cc1
